Activity calls are given as the source filed them.
How the values were obtained:
Prothrombin = Prothrombin (Homo sapiens, UniProt P00734); assay: Thrombin 1536 HTS Dose Response Confirmation. [Related pubchem assays: 1046 (Thrombin 1536 HTS; hits were confirmed in this assay)]; format: functional
[1] = target: E3 ubiquitin-protein ligase Mdm2 (Homo sapiens, UniProt Q00987); assay: MDM2-luc reporter signal enhancers, multi-concentration potency testing, MDM2 ubiquitin-protein ligase inhibitor program, whole-cell format, luminescence detection, 384-well microplate (AID 1394); format: functional;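 note: MDM2 E3 inhibitors raise luminescence so EC50 is for signal enhancement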
Chain of E3 ubiquitin-protein ligase Mdm2 (Q00987 whole entry): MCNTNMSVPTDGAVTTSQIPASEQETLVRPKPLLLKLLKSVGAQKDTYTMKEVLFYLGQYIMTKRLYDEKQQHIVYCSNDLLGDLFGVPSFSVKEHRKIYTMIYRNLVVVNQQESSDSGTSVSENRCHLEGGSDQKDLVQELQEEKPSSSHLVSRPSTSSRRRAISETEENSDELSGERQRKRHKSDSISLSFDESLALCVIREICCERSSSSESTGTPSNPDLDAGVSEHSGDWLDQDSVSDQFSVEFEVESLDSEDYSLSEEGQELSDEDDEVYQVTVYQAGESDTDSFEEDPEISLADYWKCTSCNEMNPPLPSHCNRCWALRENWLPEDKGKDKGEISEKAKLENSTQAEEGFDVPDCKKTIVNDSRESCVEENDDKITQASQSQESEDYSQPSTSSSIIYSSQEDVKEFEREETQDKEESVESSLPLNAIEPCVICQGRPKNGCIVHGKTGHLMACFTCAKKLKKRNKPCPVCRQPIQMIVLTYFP

[2] = viability inhibitors of stage V gametocytes – luminescence, dose response (AID 1117278); format: functional, cell-based;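 note: gametocytes exposed to compound for 24 hours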
[3] = viability loss in human Jurkat cells – cell-based, luminescence, cytotoxicity control for P. falciparum gametocyte viability project, dose response (AID 1117277); format: functional;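 note: potency reflects loss of cellular ATP meaning fewer viable cells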
[4] = HPDE-C7 pancreatic duct cell viability loss – fluorescence, HTS (AID 430); format: functional, cell-based; settings: Homo sapiens
[5] = viability loss of HPDE-C7K cells – cell-based, fluorescence, HTS, primary screen (AID 431); format: functional; settings: Homo sapiens
[6] = target: T1, Replicative DNA helicase DnaB (Mycobacterium tuberculosis, UniProt P9WMR3); assay: DnaB intein splicing inhibitors, dose response, biochemical, cell-free fluorescence (AID 449749); format: functional
T1 sequence (P9WMR3 whole entry): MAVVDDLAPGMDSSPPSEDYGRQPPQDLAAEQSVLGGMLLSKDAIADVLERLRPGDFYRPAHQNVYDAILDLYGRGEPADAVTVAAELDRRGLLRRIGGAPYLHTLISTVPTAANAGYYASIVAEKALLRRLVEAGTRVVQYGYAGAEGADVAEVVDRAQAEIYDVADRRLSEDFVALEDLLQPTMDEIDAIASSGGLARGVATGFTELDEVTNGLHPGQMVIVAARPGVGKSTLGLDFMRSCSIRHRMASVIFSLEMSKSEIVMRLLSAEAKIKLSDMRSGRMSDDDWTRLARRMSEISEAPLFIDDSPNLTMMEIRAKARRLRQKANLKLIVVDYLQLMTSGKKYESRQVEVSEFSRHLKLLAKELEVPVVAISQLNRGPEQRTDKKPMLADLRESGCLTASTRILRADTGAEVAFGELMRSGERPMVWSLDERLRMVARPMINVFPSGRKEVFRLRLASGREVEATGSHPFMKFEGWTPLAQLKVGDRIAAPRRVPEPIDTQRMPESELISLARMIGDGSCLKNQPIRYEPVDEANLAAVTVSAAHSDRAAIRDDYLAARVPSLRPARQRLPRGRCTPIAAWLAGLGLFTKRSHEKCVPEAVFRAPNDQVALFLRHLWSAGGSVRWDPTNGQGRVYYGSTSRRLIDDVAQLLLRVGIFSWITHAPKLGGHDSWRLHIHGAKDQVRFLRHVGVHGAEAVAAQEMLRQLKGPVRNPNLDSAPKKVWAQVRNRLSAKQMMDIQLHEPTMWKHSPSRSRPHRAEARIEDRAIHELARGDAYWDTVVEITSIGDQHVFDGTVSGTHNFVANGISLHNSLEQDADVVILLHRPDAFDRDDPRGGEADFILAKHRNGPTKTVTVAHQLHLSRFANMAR

Vero = assay: viability of Vero cells under compound – cytotoxicity control for flavivirus capping enzyme inhibitors (AID 588742); format: functional; settings: Chlorocebus sabaeus
Protein RecA = target: T2, Protein RecA (Mycobacterium tuberculosis, UniProt P9WHJ3); assay: Fluorescence Cell-Free Homogeneous Dose Retest to Identify Inhibitors of RecA-Intein Splicing Activity. [Related pubchem assays (depositor defined):AID2097, AID2223, AID489010, AID492950]; format: functional
T2 sequence (P9WHJ3 whole entry): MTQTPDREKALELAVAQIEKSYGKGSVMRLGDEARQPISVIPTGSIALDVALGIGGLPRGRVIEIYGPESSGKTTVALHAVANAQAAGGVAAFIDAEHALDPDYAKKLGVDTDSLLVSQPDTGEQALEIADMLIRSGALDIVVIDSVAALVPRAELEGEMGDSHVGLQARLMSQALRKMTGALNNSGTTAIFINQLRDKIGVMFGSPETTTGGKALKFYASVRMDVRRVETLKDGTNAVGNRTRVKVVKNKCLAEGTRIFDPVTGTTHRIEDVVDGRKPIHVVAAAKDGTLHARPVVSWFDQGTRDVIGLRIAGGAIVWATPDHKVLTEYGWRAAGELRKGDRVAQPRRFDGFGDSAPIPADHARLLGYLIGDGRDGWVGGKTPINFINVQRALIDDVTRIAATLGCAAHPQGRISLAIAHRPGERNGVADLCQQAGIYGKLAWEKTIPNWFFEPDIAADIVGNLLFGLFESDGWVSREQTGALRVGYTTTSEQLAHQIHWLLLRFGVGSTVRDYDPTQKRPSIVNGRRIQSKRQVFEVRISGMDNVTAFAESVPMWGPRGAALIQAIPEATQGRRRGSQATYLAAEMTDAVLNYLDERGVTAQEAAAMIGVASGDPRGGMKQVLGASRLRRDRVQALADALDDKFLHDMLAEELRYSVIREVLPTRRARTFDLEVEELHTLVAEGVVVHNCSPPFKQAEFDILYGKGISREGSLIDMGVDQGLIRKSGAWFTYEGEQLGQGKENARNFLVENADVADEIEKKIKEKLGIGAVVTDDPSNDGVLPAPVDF

14-3-3 protein gamma = target: T3, 14-3-3 protein gamma (Homo sapiens, UniProt P61981); assay: modulators of 14-3-3 gamma client binding – dose response (AID 711); format: functional
T3 sequence (P61981 whole entry): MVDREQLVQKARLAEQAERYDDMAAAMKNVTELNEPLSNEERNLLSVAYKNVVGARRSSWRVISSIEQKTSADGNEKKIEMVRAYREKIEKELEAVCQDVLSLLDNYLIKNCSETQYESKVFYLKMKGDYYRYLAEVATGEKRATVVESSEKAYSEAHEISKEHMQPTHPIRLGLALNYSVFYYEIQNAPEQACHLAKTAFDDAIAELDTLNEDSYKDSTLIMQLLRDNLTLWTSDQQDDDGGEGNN

BJ [7] = assay: BJ-TERT fibroblast viability loss – cell-based, RAS-independent, luminescence, dose response (AID 1933); format: functional; settings: Homo sapiens
BJ [8] = assay: cells; format: functional, cell-based; settings: Homo sapiens
BJ [9] = assay: BJ-TERT-LT-ST fibroblast viability loss – cell-based, RAS-independent, luminescence, dose response (AID 1935); format: functional; settings: Homo sapiens;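 note: BJ fibroblasts immortalized with TERT plus LT and ST oncogenes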
[10] = DRD fibroblast viability loss – cell-based, non-viral oncogenic, luminescence, dose response (AID 1934); format: functional; settings: Homo sapiens
[11] = target: Heat shock protein HSP 90-alpha (Homo sapiens, UniProt P07900); format: functional, organism-based
INS1 = assay: INS-1E survival protection against cytokine death – cell-based, luminescence, retest, dose response (AID 449756); format: functional; settings: Rattus norvegicus;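 note: cell death triggered by IL-1 beta plus TNF-alpha plus IFN-gamma mixture; protective hits raise ATP signal compared with cytokine alone wells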
[12] = blockers of HIV-1 envelope-mediated cell-cell fusion – cherry-pick, dose response (AID 652057); format: functional, cell-based
[13] = viability loss in CEM21 cells – cell-based, CellTiter-Glo luminescence, cherry-picked, cytotoxicity control for viral fusion inhibitor project, dose response (AID 652042); format: functional;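 note: potency for signal decrease meaning cytotoxicity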
[14] = blockers of HIV-1 ZM109 envelope-driven cell-cell fusion – HeLa effector, CEM target cells, luciferase, cherry-pick, dose response (AID 652058); format: functional, cell-based;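 note: luciferase signal from HIV-1 Env mediated cell-cell fusion of effector and target cells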
Paired box protein Pax-8 = Paired box protein Pax-8 (Homo sapiens, UniProt Q06710); assay: PAX8 transcriptional activity inhibition in RMG-I – RMG-I cells, luciferase, cherry-pick, dose response (AID 687027); format: functional, cell-based;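 note: luciferase reporter driven by Pax8 target thyroperoxidase promoter measured by SteadyGlo luminescence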
Chain of Paired box protein Pax-8 (Q06710 whole entry, the tested form may be a part): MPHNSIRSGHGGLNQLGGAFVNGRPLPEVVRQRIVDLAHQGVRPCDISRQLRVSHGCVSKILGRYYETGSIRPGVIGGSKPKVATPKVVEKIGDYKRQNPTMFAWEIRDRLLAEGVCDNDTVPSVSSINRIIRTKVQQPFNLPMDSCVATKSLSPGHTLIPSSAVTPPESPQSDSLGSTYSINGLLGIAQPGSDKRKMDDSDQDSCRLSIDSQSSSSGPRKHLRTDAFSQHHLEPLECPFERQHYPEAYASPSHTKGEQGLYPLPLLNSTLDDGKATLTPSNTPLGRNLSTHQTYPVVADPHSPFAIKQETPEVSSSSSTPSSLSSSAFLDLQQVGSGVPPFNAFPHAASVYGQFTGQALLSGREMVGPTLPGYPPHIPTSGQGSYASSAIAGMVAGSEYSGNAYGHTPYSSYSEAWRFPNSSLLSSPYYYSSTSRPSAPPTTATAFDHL

[15] = off-target signal loss in HeLa-CEM21 co-culture – HeLa F-luc CTL cells, cherry-picked, counter-screen for HIV-1 Env fusion inhibitor project, dose response (AID 652040); format: functional, cell-based;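 note: potency for signal decrease marking cytotoxic or nonspecific inhibition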
[16] = HIV-1 AD8 envelope cell-cell fusion blockers – cherry-pick, dose response (AID 652062); format: functional, cell-based;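 note: luciferase signal from cell-cell fusion driven by HIV-1 clade B AD8 Env; potency is for inhibitors of fusion seen as a drop in luminescence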
[17] = A549 cell cytotoxicity, dose response, cytotoxicity control, plate reader, cherry-pick, antagonist series (AID 743412); format: functional, cell-based
[18] = toxicity toward HepG2 liver cells – cell-based, plate reader, cherry-pick, antagonist series, cytotoxicity control, dose response (AID 743416); format: functional
[19] = blockers of bursicon-stimulated LGR2 cAMP reporter – cell-based, HEK293, CRE-luciferase reporter, cherry pick, set 2, dose response (AID 743343); format: functional;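 note: transfected cells were stimulated with diluted bursicon conditioned medium after compound addition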
[20] = general cell-killing toxicity readout – plate reader, dry powder samples, cytotoxicity control for PAX8 inhibitor project, dose response (AID 743021); format: functional, cell-based
[21] = blockade of melanocortin 4 receptor signaling – cell-based, plate reader, cherry pick, counter-screen for LGR2 antagonist project, dose response (AID 743444); format: functional;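 note: transfected HEK 293 cells stimulated with alpha-MSH peptide; potency of inhibitors of the alpha-MSH evoked signal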
[22] = viability loss in HEK293 cells – cell-based, plate reader, cherry-picked samples, cytotoxicity control, dose response (AID 743446); format: functional
[23] = target: T4, Heat shock factor protein 1 (Mus musculus, UniProt P38532); assay: decrease of HSF1-responsive luciferase luminescence – cell-based, NIH3T3, dose retest, confirmation (AID 2382); format: functional;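 note: NIH3T3 fibroblasts with HSF1-driven luciferase reporter stressed by proteasome inhibitor MG132; luminescence from HSF1-driven luciferase expression after 8 hours of MG132 stress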
T4 sequence (P38532 whole entry): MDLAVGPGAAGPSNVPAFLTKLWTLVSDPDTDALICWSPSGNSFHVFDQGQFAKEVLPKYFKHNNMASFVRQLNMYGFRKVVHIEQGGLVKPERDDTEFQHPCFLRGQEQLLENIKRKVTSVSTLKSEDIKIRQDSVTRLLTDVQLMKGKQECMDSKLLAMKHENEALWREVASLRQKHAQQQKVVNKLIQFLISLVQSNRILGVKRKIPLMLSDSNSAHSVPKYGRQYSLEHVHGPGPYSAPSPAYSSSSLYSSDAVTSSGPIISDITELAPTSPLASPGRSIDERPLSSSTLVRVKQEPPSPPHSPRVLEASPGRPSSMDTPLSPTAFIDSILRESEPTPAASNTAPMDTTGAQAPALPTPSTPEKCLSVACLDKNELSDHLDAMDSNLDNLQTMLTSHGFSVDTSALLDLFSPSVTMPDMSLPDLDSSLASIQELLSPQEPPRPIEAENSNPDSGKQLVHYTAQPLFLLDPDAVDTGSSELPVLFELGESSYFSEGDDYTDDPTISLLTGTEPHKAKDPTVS

[24] = target: Induced myeloid leukemia cell differentiation protein Mcl-1 (Homo sapiens, UniProt Q07820); assay: blockers of MCL1 binding to BIM peptide – biochemical, fluorescence polarization, BIM-BH3 peptide, 1536-well, dose response (AID 2217)
Chain of Induced myeloid leukemia cell differentiation protein Mcl-1 (Q07820 whole entry): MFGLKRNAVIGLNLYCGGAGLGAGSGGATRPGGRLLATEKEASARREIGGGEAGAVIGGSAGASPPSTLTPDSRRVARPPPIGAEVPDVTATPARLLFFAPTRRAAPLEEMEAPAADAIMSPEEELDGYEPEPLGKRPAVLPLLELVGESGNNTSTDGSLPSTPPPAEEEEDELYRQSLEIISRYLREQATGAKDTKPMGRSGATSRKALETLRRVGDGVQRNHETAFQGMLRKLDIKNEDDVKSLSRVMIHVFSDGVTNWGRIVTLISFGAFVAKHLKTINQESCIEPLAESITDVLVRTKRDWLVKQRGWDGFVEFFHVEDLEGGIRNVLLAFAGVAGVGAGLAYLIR

Bcl-2-like protein 1 = Bcl-2-like protein 1 (Homo sapiens, UniProt Q07817); assay: blockers of BCLXL peptide binding – biochemical, fluorescence polarization, 1536-well, selectivity assay for MCL1 inhibitor project, dose response (AID 2218)
Chain of Bcl-2-like protein 1 (Q07817 whole entry): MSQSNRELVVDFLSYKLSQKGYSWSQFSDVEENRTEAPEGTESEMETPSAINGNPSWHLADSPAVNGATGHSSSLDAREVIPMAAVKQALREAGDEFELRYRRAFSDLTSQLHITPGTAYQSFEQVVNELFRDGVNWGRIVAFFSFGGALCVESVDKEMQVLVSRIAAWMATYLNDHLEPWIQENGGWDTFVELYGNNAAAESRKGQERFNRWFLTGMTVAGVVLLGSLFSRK

[25] = viability loss in THP-1 monocytes – THP-1 cells, cytotoxicity control for Vif-APOBEC3G degradation inhibitor project, dose response (AID 1117359); format: functional; settings: THP-1

SMILES: COc1ccc(N2C(S)=NC(=Nc3ccccc3)C23CCCCC3)cc1
- IC50 (Prothrombin): > 50 µM (not active)

SMILES: CCCN(CCC)CCNc1c(NC2CCN(C(=O)OCC)CC2)c(=O)c1=O
- EC50 [1]: 16.1 µM (not active)

SMILES: COc1cc2nc(CN(C)Cc3ccc(F)cc3)nc(O)c2cc1OC
- IC50 [2]: > 109 µM (inactive)
- IC50 [3]: > 83.2 µM (inactive)

SMILES: CCCc1n[nH]c2c1C(c1ccc(Br)s1)C(C#N)=C(N)O2 (stereo not given)
- EC50 [4]: 5.48 µM (active)
- EC50 [5]: 7 µM (active)
- AC50 [6]: 8.54 µM (active)
- CC50 (Vero): 39.9 µM (active)
- EC50 (Protein RecA): 7.21 µM (active)

SMILES: c1ccc2c(-c3nnc4n3CCCCC4)cc(-c3ccncc3)nc2c1
- IC50 (Prothrombin): > 50 µM (not active)

SMILES: Cc1ccccc1CS(=O)(=O)Cc1ccc(C(=O)NCc2ccccn2)o1
- IC50 (14-3-3 protein gamma): 50 µM (not active)

SMILES: Cc1nn(-c2nc3ccccc3[nH]2)c(=O)c2ccccc12
- EC50 (BJ [7]): 1.06 µM (active)
- EC50 (BJ [8]): 1.04 µM (active)
- EC50 (BJ [9]): 3.5 µM (active)
- EC50 [10]: 1.01 µM (active)
- AC50 [11]: 4.97 µM (active)
- AC50 (INS1): 1.3 µM (active)
- AC50 [12]: 0.534 µM (active)
- AC50 [13]: 2.08 µM (active)
- AC50 [14]: 5.84 µM (active)
- AC50 (Paired box protein Pax-8): 1.54 µM (active)
- AC50 [15]: 1.36 µM (active)
- AC50 [16]: 1.46 µM (active)
- AC50 [17]: 2.04 µM (active)
- AC50 [18]: 14.8 µM (active)
- AC50 [19]: 0.352 µM (active)
- AC50 [20]: 1.72 µM (active)
- AC50 [21]: 0.352 µM (active)
- AC50 [22]: 2.33 µM (active)
- IC50 [2]: 8.6 µM (active)
- IC50 [3]: 2.41 µM (active)

SMILES: CCCCC1(C(=O)OCC)CC(CN2CCOCC2)OC1=O (stereo not given)
- IC50 (14-3-3 protein gamma): > 50 µM (not active)

SMILES: COc1ccc(C)cc1NC(=O)C(OC(=O)CNC(=O)c1cc(C)cc(C)c1)c1ccccc1 (stereo not given)
- EC50 [1]: 7.51 µM (not active)

SMILES: CN(C)c1nc(OCCNC(=O)COc2ccc(Cl)cc2Cl)nc(N(C)C)n1
- EC50 [23]: > 195 µM (not active)
- IC50 [2]: > 109 µM (inactive)
- IC50 [3]: > 83.3 µM (inactive)

SMILES: O=[N+]([O-])c1cc(CN2CCCC2)c2cccnc2c1O
- IC50 [24]: 2.7 µM (active)
- IC50 (Bcl-2-like protein 1): > 109 µM (not active)
- CC50 [25]: > 40 µM (active)

SMILES: COc1ccc(C(=O)n2ncc(C#N)c2N)cc1
- IC50 (Prothrombin): 15.1 µM (active)

From ChEMBL document CHEMBL1201862, “PubChem BioAssay data set” (2004)
